Consider five compounds from patent US20240240224A1, “FLUORESCENT D-TYPE AMINO ACID METABOLISM MARKER-BASED METHOD FOR DETECTING ANTIBACTERIAL DRUG SENSITIVITY TEST” (priority 2020, published 2024).

≈ marks a conversion by molar mass, not a printed value.

Experiment [1] concerns alveolar lavage fluid sample 0203, K. pneumoniae. The experiment is described as follows: BMD susceptibility test of patient alveolar lavage fluid. The experiment is classed as cell-based, Klebsiella pneumoniae. The conditions noted are these: unit assumed. From the text: (§1) The results of antimicrobial susceptibility test of alveolar lavage fluid of seven patients using FDAA and BMD methods are shown in the following table. The drug-resistant bacteria are shown in bold.

Experiment [2] relates to alveolar lavage fluid sample 0226, K. pneumoniae. The experiment is described as above. The note with it: unit assumed. Format: cell-based, Klebsiella pneumoniae.
From the text: as §1

Experiment [3] concerns alveolar lavage fluid sample 0206, A. baumannii. The experiment is described as follows: FaAST (FDAA) susceptibility test of patient alveolar lavage fluid. The experiment is classed as cell-based, Acinetobacter baumannii. The note with it: unit assumed. The protocol:
(§2) With reference to the flow chart of the rapid detection method of antimicrobial susceptibility test based on FDAA metabolic markers shown in FIG. 3, FDAA is used for the detection of antimicrobial susceptibility test of alveolar lavage fluid. The specific experimental steps are as follows: • 1. Mix bronchoalveolar lavage fluid (BALF, 10 ml) of patients with hospital acquired pneumonia with cation regulated broth medium (CAMHB, 10 ml) of twice the concentration to prepare the bacterial fluid to be tested. • 2. Add 45 μl antibiotic solutions of different concentrations to the 96-well plate separately (see Table 1 for antibiotic concentration gradient settings). • 3. Add 50 μl of the bacterial solution prepared in step 1 to the 96-well plate and mix well. • 4. Add 5 μl of 10 mM Cy5-DAA probe (final concentration 0.15 mM, see FIG. 1 for its structure) into each well, mix well, and then cultivate in dark for 2 hours. • 5. Add 200 μl PBS solution for dilution, and then use flow cytometry to detect the fluorescence intensity of each sample.
as §1

The test system of experiment [4] is alveolar lavage fluid sample 0204, A. baumannii. The description is as above. The experiment is classed as cell-based, Acinetobacter baumannii. The conditions noted are these: unit assumed. The protocol: as §2, §1
Experiment [5] deals with alveolar lavage fluid sample 0219, A. baumannii. The experiment is described as above. Format: cell-based, Acinetobacter baumannii. The conditions noted are these: unit assumed. How it is done:
as §2, §1

For experiment [6], the system named is alveolar lavage fluid sample 0130, A. baumannii. The description is as above. The experiment is classed as cell-based, Acinetobacter baumannii. The note with it: unit assumed. The protocol:
as §2, §1

Experiment [7] has as its system alveolar lavage fluid sample 0203, K. pneumoniae. The experiment is described as above. The experiment is classed as cell-based, Klebsiella pneumoniae. The note with it: unit assumed. The protocol: as §2, §1
The subject of experiment [8] is alveolar lavage fluid sample 0226, K. pneumoniae. The experiment is described as above. Format: cell-based, Klebsiella pneumoniae. The conditions noted are these: unit assumed. How it is done:
as §2, §1

Experiment [9] relates to alveolar lavage fluid sample 0206, A. baumannii. Put plainly: BMD susceptibility test of patient alveolar lavage fluid. The experiment is classed as cell-based, Acinetobacter baumannii. The conditions noted are these: unit assumed.
From the text: as §1

Experiment [10] concerns alveolar lavage fluid sample 0219, A. baumannii. The experiment is described as above. The experiment is classed as cell-based, Acinetobacter baumannii. The note with it: unit assumed.
From the text: as §1

Experiment [11] relates to alveolar lavage fluid sample 0130, A. baumannii. The experiment is described as above. The conditions noted are these: unit assumed. The experiment is classed as cell-based, Acinetobacter baumannii.
From the text: as §1

The test system of experiment [12] is alveolar lavage fluid sample 0204, A. baumannii. Described as above. The experiment is classed as cell-based, Acinetobacter baumannii. The conditions noted are these: unit assumed.
Experiment [13] relates to E. faecium Ef26. The experiment is described as follows: FaAST (FDAA metabolic labeling method). The conditions noted are these: unit assumed. Format: cell-based, Enterococcus faecium. The protocol: (§3) Take the colony to be tested that has been cultured overnight on the plate and fully mix it in normal saline to make a uniform bacterial solution. Dilute it into Cation-Adjusted Mueller Hinton Broth (CAMHB) culture medium to make a bacterial solution with OD600=0.05. • 2. Add 45 μl antibiotic solutions of different concentrations to 96-well plates (see Table 1 for antibiotic concentration gradient settings). • 3. Add 50 μl of the bacterial solution prepared in step 1 to the 96-well plate and mix well. • 4. Add 5 μl of 10 mM Cy5-DAA probe (final concentration 0.15 mM, see FIG. 1 for its structure) into each well, mix well, and cultivate in dark for 2 hours. • 5. Add 200 μl After PBS solution is diluted, the fluorescence intensity of each sample is detected by flow cytometry. The flow detection results are shown in FIG. 4-5, showing the curve of the change of antibiotic concentration gradient and fluorescence intensity. The MIC (minimum inhibitory concentration) can be obtained by referring to this curve.
(§4) Bacteria with antibiotic resistance are shown in bold in the following table.

Experiment [14] relates to E. faecium Ef26. Put plainly: BMD susceptibility test. Format: cell-based, Enterococcus faecium. The conditions noted are these: unit assumed.
Experiment [15] relates to E. faecalis ATCC29212. The experiment is described as follows: FaAST (FDAA metabolic labeling method). The experiment is classed as cell-based, Enterococcus faecalis. The note with it: unit assumed. The protocol: as §3, §4
The test system of experiment [16] is E. faecalis ATCC29212. The note with it: cited from earlier work.
The subject of experiment [17] is E. faecalis ATCC29212. Put plainly: BMD susceptibility test. The experiment is classed as cell-based, Enterococcus faecalis. The note with it: unit assumed.
For experiment [18], the system named is S. aureus ST398. Put plainly: Vitek 2 drug sensitivity test. Format: cell-based, Staphylococcus aureus.
Experiment [19] deals with S. aureus ST398. Put plainly: FDAA metabolic labeling susceptibility test (Cy5-DAA probe, flow cytometry). The conditions noted are these: Staphylococcus aureus; S. aureus ST398; Cy5-DAA probe, 2 hours; read-out: MIC, FDAA. The experiment is classed as cell-based. How it is done: as §3
In general terms: In flow cytometry, cells or beads pass a laser one at a time.

Experiment [20] concerns S. aureus ST59. The description is as above. The note with it: Staphylococcus aureus; S. aureus ST59; Cy5-DAA probe, 2 hours; read-out: MIC, FDAA. Format: cell-based. The protocol:
as §3

Experiment [21] relates to S. aureus ST59. The experiment is described as follows: Vitek 2 drug sensitivity test. Format: cell-based, Staphylococcus aureus.
Experiment [22] deals with E. coli Ec11. Put plainly: FaAST (FDAA metabolic labeling). The experiment is classed as cell-based, Escherichia coli. The note with it: unit assumed. The protocol: (§5) The specific experimental steps are as follows: • 1. Take the colony to be tested that has been cultured overnight on the plate and fully mix it in normal saline to make a uniform bacterial solution. Dilute it into CAMHB medium to make a bacterial solution with OD600=0.05. • 2. Add 45 μl antibiotic solutions to be tested of different concentrations to 96-well plates (see Table 3 for antibiotic concentration gradient settings). • 3. Add 50 μl of bacterial solution prepared in Step 1 to the 96-well plate and mix well. • 4.5 μl of 10 mM Cy5-DAA probe was added to each well (final concentration was 0.15 mM, and its structure was shown in FIG. 1). After mixing, the probe was incubated for 2 hours in the dark. • 5. After dilution with 200 μl PBS solution, the fluorescence intensity of each sample was detected by flow cytometry. The flow detection results are shown in the attached FIG. 4-5, showing the curve of antibiotic concentration gradient and fluorescence intensity, and the MIC (minimum inhibitory concentration) is obtained by referring to this curve.
(§6) Antibiotic resistant strains are shown in bold in the table below.

Experiment [23] has as its system Ec ATCC 25922. Put plainly: FaAST (FDAA metabolic labeling). The experiment is classed as cell-based, Escherichia coli. The conditions noted are these: unit assumed. The protocol: as §5, §6
For experiment [24], the system named is Ec ATCC 25922. The note with it: cited from earlier work.
In experiment [25] the test system is E. coli Ec13. The experiment is described as follows: FaAST (FDAA metabolic labeling). Format: cell-based, Escherichia coli. The conditions noted are these: unit assumed. How it is done: as §5, with “cytometry.” for “cytometry. The flow detection results are shown in the attached FIG. 4-5, showing the curve of antibiotic concentration gradient and fluorescence intensity, and the MIC (minimum inhibitory concentration) is obtained by referring to this curve.”

The test system of experiment [26] is Ec ATCC 25922. The experiment is described as follows: BMD susceptibility test. Format: cell-based, Escherichia coli. The conditions noted are these: unit assumed.
The subject of experiment [27] is K. pneumoniae Kp9. The experiment is described as follows: FaAST (FDAA metabolic labeling). Format: cell-based, Klebsiella pneumoniae. The note with it: unit assumed. The protocol: as §5, with “cytometry.” for “cytometry. The flow detection results are shown in the attached FIG. 4-5, showing the curve of antibiotic concentration gradient and fluorescence intensity, and the MIC (minimum inhibitory concentration) is obtained by referring to this curve.”

The subject of experiment [28] is K. pneumoniae Kp6. Put plainly: FaAST (FDAA metabolic labeling). The experiment is classed as cell-based, Klebsiella pneumoniae. The note with it: unit assumed. How it is done: as §5, with “cytometry.” for “cytometry. The flow detection results are shown in the attached FIG. 4-5, showing the curve of antibiotic concentration gradient and fluorescence intensity, and the MIC (minimum inhibitory concentration) is obtained by referring to this curve.”

For experiment [29], the system named is E. coli Ec13. Put plainly: BMD susceptibility test. Format: cell-based, Escherichia coli. The note with it: unit assumed.
Experiment [30] has as its system E. coli Ec11. Put plainly: BMD susceptibility test. Format: cell-based, Escherichia coli. The conditions noted are these: unit assumed.
Experiment [31] relates to K. pneumoniae Kp6. The experiment is described as follows: BMD susceptibility test. Format: cell-based, Klebsiella pneumoniae. The conditions noted are these: unit assumed.
Experiment [32] concerns K. pneumoniae Kp9. The experiment is described as follows: BMD susceptibility test. Format: cell-based, Klebsiella pneumoniae. The note with it: unit assumed.
For Sensibility in this document: key: S: Drug sensitive; R: Drug resistance.

Regarding `C[C@@H](O)[C@H]1C(=O)N2C(C(=O)O)=C(S[C@@H]3CN[C@H](C(=O)N(C)C)C3)[C@H](C)[C@H]12` [Meropenem], the BMD (MIC) in experiment [1] is 0.25 µg/mL; in [2], 0.25 µg/mL; in experiment [9], 32 µg/mL; in [10], 32 µg/mL; in [11], 64 µg/mL; in [12], 0.5 µg/mL. Further, the FaAST (MIC) in [3] was 32 µg/mL; in experiment [4], 4 µg/mL; in experiment [5] it was 64 µg/mL; in [6], 32 µg/mL; in experiment [7], 0.25 µg/mL; in experiment [8] it was 0.25 µg/mL.

`CC1(C)S[C@@H]2[C@H](NC(=O)Cc3ccccc3)C(=O)N2[C@H]1C(=O)O` [Penicillin G, penicillin G]: the FaAST (MIC) with E. faecium Ef26 [13] is 32 µg/mL; with E. faecalis ATCC29212 [15], 4 µg/mL. The results for the BMD (MIC) in the experiment on E. faecium Ef26 [14] and with E. faecalis ATCC29212 [17] were 64 µg/mL and 2 µg/mL, respectively. Also, the “CLSI QC range” value with E. faecalis ATCC29212 [16] is recorded as 1-4.

On to `CC[C@H]1OC(=O)[C@H](C)[C@@H](O[C@H]2C[C@@](C)(OC)[C@@H](O)[C@H](C)O2)[C@H](C)[C@@H](O[C@@H]2O[C@H](C)C[C@H](N(C)C)[C@H]2O)[C@](C)(O)C[C@@H](C)C(=O)[C@H](C)[C@@H](O)[C@]1(C)O` [Erythromycin, erythromycin], for which the FaAST (MIC) is at most 0.25 µg/mL in the experiment on E. faecium Ef26 [13] and 2 µg/mL in the experiment on E. faecalis ATCC29212 [15]. Moreover, the Sensibility entry is “S” in the experiment on S. aureus ST398 [18] and “R” in the experiment on S. aureus ST59 [21]. For the same compound, the MIC against S. aureus ST398 [18] (Staphylococcus aureus) was at most 0.25 µg/mL; in the experiment on S. aureus ST398 [19], 0.5 µg/mL (≈ 0.681 µM); with S. aureus ST59 [20], 8 µg/mL (≈ 10.9 µM); in the experiment with S. aureus ST59 [21] (Staphylococcus aureus), at least 8 µg/mL. For the same compound, the BMD (MIC) in the experiment on E. faecium Ef26 [14] was at most 0.25 µg/mL; with E. faecalis ATCC29212 [17] it was 2 µg/mL. Also, in the experiment with E. faecalis ATCC29212 [16], the “CLSI QC range” value is 1-4.

In the case of Polymyxin B, the FaAST (MIC) is 2 µg/mL in the experiment on E. coli Ec11 [22]; 2 µg/mL in the experiment on Ec ATCC 25922 [23]; 8 µg/mL in the experiment with E. coli Ec13 [25]; 32 µg/mL in the experiment with K. pneumoniae Kp9 [27]; 1 µg/mL with K. pneumoniae Kp6 [28]. The “CLSI QC range” value in the experiment on Ec ATCC 25922 [24] was 0.25-2. Further, the BMD (MIC) with Ec ATCC 25922 [26] amounted to 2 µg/mL; in the experiment on E. coli Ec13 [29], 8 µg/mL; with E. coli Ec11 [30] it was 2 µg/mL; in the experiment with K. pneumoniae Kp6 [31], 0.5 µg/mL; in the experiment on K. pneumoniae Kp9 [32], 16 µg/mL.

As for `CO/N=C(\C(=O)N[C@@H]1C(=O)N2C(C(=O)O)=C(COC(N)=O)CS[C@H]12)c1ccco1` [Cefuroxime], the results for the FaAST (MIC) in the experiment on E. coli Ec11 [22], with Ec ATCC 25922 [23] and in the experiment with K. pneumoniae Kp6 [28] were 8 µg/mL, 8 µg/mL and 4 µg/mL, respectively. Further, the “CLSI QC range” value in the experiment with Ec ATCC 25922 [24] is recorded as 2-8. Further, the BMD (MIC) was found to be 4 µg/mL in the experiment on Ec ATCC 25922 [26], 4 µg/mL in the experiment on E. coli Ec11 [30] and 2 µg/mL in the experiment on K. pneumoniae Kp6 [31].

Usually MIC stands for the least concentration at which growth counts as inhibited.
